Results on 22 compounds are retold here after patent US20240228459A1 (Boundless Bio, Inc., priority 2022, published 2024).

Some results are limits rather than exact numbers.

The target in one assay is Wee1 (Homo sapiens, UniProt P30291). The assay can be described thus: Wee1 pCDK1 activity (known assay). Format: cell-based. As to the method: (§1) The Wee1 pCDK1 and PLK1 activities were determined using known assays.
The target of the next assay is PLK1 (Homo sapiens, UniProt P53350). The assay is described as follows: PLK1 activity (known assay). In kind it is biochemical. As to the method:
as §1

Chain of PLK1 (P53350 whole entry, species assumed): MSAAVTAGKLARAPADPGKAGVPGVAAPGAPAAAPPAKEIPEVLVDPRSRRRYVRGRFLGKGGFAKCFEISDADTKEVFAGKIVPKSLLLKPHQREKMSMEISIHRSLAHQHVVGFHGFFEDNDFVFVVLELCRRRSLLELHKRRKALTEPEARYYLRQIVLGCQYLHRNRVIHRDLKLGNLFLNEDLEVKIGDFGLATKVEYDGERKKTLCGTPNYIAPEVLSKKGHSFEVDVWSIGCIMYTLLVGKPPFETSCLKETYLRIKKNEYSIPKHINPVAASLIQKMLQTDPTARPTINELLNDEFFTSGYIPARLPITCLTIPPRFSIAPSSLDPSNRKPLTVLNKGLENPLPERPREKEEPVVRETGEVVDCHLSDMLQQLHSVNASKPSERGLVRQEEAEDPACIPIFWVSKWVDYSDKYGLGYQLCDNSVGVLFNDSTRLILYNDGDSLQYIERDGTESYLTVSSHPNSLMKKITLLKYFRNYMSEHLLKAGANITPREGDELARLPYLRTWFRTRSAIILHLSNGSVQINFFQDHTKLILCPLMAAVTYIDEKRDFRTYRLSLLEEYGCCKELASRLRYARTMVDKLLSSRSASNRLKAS
Chain of Wee1 (P30291 whole entry, species assumed): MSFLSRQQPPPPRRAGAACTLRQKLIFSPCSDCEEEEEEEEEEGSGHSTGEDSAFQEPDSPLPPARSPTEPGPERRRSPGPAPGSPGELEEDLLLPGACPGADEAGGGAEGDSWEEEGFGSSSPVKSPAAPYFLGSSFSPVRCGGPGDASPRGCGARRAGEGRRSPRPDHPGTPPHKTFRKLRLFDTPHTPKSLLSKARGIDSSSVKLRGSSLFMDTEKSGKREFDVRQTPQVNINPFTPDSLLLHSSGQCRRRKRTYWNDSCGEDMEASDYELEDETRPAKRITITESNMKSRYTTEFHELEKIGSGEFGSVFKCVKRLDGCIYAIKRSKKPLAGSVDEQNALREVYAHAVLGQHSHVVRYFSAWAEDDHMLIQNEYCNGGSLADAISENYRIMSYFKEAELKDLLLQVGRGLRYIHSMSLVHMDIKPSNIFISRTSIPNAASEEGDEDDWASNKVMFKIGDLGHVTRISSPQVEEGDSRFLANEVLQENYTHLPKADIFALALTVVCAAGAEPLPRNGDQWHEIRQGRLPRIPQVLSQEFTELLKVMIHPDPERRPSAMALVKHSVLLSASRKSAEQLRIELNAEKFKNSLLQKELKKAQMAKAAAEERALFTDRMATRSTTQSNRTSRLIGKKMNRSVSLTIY

By IC50 is commonly meant the concentration at which inhibition is half-maximal. Turning to `C[C@@H]1CN(C)CCN1c1ccc(Nc2ncc(C#N)c(Nc3cccc(N4CCOC4=O)n3)n2)cc1` (racemic) [Example 10, 4-[[6-(2-oxooxazolidin-3-yl)-2-pyridyl]amino]-2-[4-[rac-(2R)-2,4-dimethylpiperazin-1-yl]anilino]pyrimidine-5-carbonitrile], the IC50 against Wee1 was 100 to 250 nM; against PLK1, above 1000 nM.

Consider `CCC1(O)CCc2ccc(Nc3nc(Nc4ccc(N5C[C@@H](C)N[C@@H](C)C5)cc4)ncc3C#N)nc21` (mixture of isomers) [Example 32, 4-[(7-ethyl-7-hydroxy-5,6-dihydrocyclopenta[b]pyridin-2-yl)amino]-2-[4-[rac-(3R,5S)-3,5-dimethylpiperazin-1-yl]anilino]pyrimidine-5-carbonitrile], for which the IC50 against Wee1 was 100 to 250 nM; against PLK1, at most 100 nM.

Take `CCC1(O)CCc2ccc(Nc3nc(Nc4ccc(N5C[C@@H](C)N(C)[C@@H](C)C5)cc4)ncc3C#N)nc21` (mixture of isomers) [Example 53, 4-[(7-ethyl-7-hydroxy-5,6-dihydrocyclopenta[b]pyridin-2-yl)amino]-2-[4-[rac-(3R,5S)-3,4,5-trimethylpiperazin-1-yl]anilino]pyrimidine-5-carbonitrile]: the values for the concentration for half-maximal inhibition (IC50) against Wee1 and on PLK1 were 100 to 250 nM and at most 100 nM, respectively.

With `C[C@H]1CN(C)CCN1c1ccc(Nc2ncc(C#N)c(Nc3ccc4c(n3)C(C)(O)CC4)n2)cc1` (mixture of isomers) [Example 60, 4-[(7-hydroxy-7-methyl-5,6-dihydrocyclopenta[b]pyridin-2-yl)amino]-2-[4-[rac-(2S)-2,4-dimethylpiperazin-1-yl]anilino]pyrimidine-5-carbonitrile], the IC50 against Wee1 and at PLK1 was 500 to 1000 nM in each case.

Consider `CCC1(O)CCc2ccc(Nc3nc(Nc4ccc(C5CCN(C)CC5)c(C)c4)ncc3C#N)nc21` (single isomer, unassigned) [Example 21], for which the half-inhibitory concentration (IC50) against Wee1 and against PLK1 was at most 100 nM in each case.

For `CCC1(O)CCc2ccc(Nc3nc(Nc4ccc(C5CCN(C)CC5)c(C)c4)ncc3C#N)nc21` (single isomer, unassigned) [Example 22], the IC50 on Wee1 lay in the range of 250 to 500 nM; on PLK1, 100 to 250 nM.

As to `CCC1(O)CCc2ccc(Nc3nc(Nc4ccc5c(c4)CCN(C)C5(C)C)ncc3C#N)nc21` (single isomer, unassigned) [Example 27], the IC50 at Wee1 was at most 100 nM; against PLK1, above 1000 nM.

Regarding `CCC1(O)CCc2ccc(Nc3nc(Nc4ccc5c(c4)CCN(C)C5(C)C)ncc3C#N)nc21` (single isomer, unassigned) [Example 28], the concentration for half-maximal inhibition (IC50) against Wee1 was 250 to 500 nM; on PLK1, above 1000 nM.

With `CCC1(O)CCc2ccc(Nc3nc(Nc4ccc(N5C6CCC5CN(C)C6)cc4)ncc3C#N)nc21` (single isomer, unassigned) [Example 37], the IC50 on Wee1 and on PLK1 was above 1000 nM in each case.

Turning to `CCC1(O)CCc2ccc(Nc3nc(Nc4ccc(N5C6CCC5CN(C)C6)cc4)ncc3C#N)nc21` (single isomer, unassigned) [Example 38], the IC50 against Wee1 and against PLK1 was 250 to 500 nM in each case.

As to `CCC1(O)CCCc2ccc(Nc3nc(Nc4ccc(N5CCN(C)CC5)cc4)ncc3C#N)nc21` (stereo not shown) [Example 1, 4-[(8-ethyl-8-hydroxy-6,7-dihydro-5H-quinolin-2-yl)amino]-2-[4-(4-methylpiperazin-1-yl)anilino]pyrimidine-5-carbonitrile], the IC50 was 100 to 250 nM against Wee1 and at most 100 nM against PLK1.

Regarding `CCCC1(O)CCc2ccc(Nc3nc(Nc4ccc(N5CCN(C)CC5)cc4)ncc3C#N)nc21` (stereo not shown) [Example 2, 4-[(7-hydroxy-7-propyl-5,6-dihydrocyclopenta[b]pyridin-2-yl)amino]-2-[4-(4-methylpiperazin-1-yl)anilino]pyrimidine-5-carbonitrile], the IC50 against Wee1 and against PLK1 was at most 100 nM throughout.

For `CN1CCN(c2ccc(Nc3ncc(C#N)c(Nc4cccc(-n5ccccc5=O)n4)n3)cc2)CC1` [Example 3, 2-[4-(4-methylpiperazin-1-yl)anilino]-4-[[6-(2-oxo-1-pyridyl)-2-pyridyl]amino]pyrimidine-5-carbonitrile], at Wee1, the IC50 fell in the range of 500 to 1000 nM.

`COC1(C)CCc2ccc(Nc3nc(Nc4ccc(N5CCN(C)CC5)cc4)ncc3C#N)nc21` (stereo not shown) [Example 4, 4-[(7-methoxy-7-methyl-5,6-dihydrocyclopenta[b]pyridin-2-yl)amino]-2-[4-(4-methylpiperazin-1-yl)anilino]pyrimidine-5-carbonitrile]: the IC50 at Wee1 was 250 to 500 nM; at PLK1, at most 100 nM.

With `CN1CCN(c2ccc(Nc3ncc(C#N)c(Nc4cccc(N5CCCC5=O)n4)n3)cc2)CC1` [Example 5, 2-[4-(4-methylpiperazin-1-yl)anilino]-4-[[6-(2-oxopyrrolidin-1-yl)-2-pyridyl]amino]pyrimidine-5-carbonitrile], the values for the IC50 on Wee1 and at PLK1 were 100 to 250 nM and 250 to 500 nM, respectively.

With `CCN1CCCc2ccc(Nc3nc(Nc4ccc(N5CCN(C)CC5)cc4)ncc3C#N)nc21` [Example 6, 4-[(8-ethyl-6,7-dihydro-5H-1,8-naphthyridin-2-yl)amino]-2-[4-(4-methylpiperazin-1-yl)anilino]pyrimidine-5-carbonitrile], the IC50 at Wee1 lay within 500 to 1000 nM.

For `CN1CCN(c2ccc(Nc3ncc(C#N)c(Nc4cccc(N5CCCC5)n4)n3)cc2)CC1` [Example 7, 2-[4-(4-methylpiperazin-1-yl)anilino]-4-[(6-pyrrolidin-1-yl-2-pyridyl)amino]pyrimidine-5-carbonitrile], the figures for the IC50 on Wee1 and against PLK1 were 100 to 250 nM and at most 100 nM, respectively.

As to `CN1CCN(c2ccc(Nc3ncc(C#N)c(Nc4ccc5c(n4)C(C)(O)CC5)n3)cc2)CC1` (stereo not shown) [Example 8, 4-[(7-hydroxy-7-methyl-5,6-dihydrocyclopenta[b]pyridin-2-yl)amino]-2-[4-(4-methylpiperazin-1-yl)anilino]pyrimidine-5-carbonitrile], the IC50 against Wee1 is 100 to 250 nM; against PLK1 it was at most 100 nM.

On to `C[C@H]1CN(C)CCN1c1ccc(Nc2ncc(C#N)c(Nc3cccc(N4CCOC4=O)n3)n2)cc1` [Example 9, 4-[[6-(2-oxooxazolidin-3-yl)-2-pyridyl]amino]-2-[4-[(2S)-2,4-dimethylpiperazin-1-yl]anilino]pyrimidine-5-carbonitrile], for which the figures for the IC50 against Wee1 and against PLK1 were 100 to 250 nM and above 1000 nM, respectively.

At Wee1, `Cc1cc(Nc2ncc(C#N)c(Nc3cccc(N4CCOC4=O)n3)n2)ccc1C1CCN(C)CC1` [Example 11, 2-[3-methyl-4-(1-methyl-4-piperidyl)anilino]-4-[[6-(2-oxooxazolidin-3-yl)-2-pyridyl]amino]pyrimidine-5-carbonitrile] returned an IC50 of 100 to 250 nM.

On to `CN1CCc2cc(Nc3ncc(C#N)c(Nc4cccc(N5CCOC5=O)n4)n3)ccc2C1` [Example 12, 2-[(2-methyl-3,4-dihydro-1H-isoquinolin-6-yl)amino]-4-[[6-(2-oxooxazolidin-3-yl)-2-pyridyl]amino]pyrimidine-5-carbonitrile], for which the IC50 on Wee1 was at most 100 nM; against PLK1, above 1000 nM.

With `Cc1cc(Nc2ncc(C#N)c(Nc3cccc(N4CCCC4=O)n3)n2)cc2c1CNCC2` [Example 77, 2-[(8-methyl-1,2,3,4-tetrahydroisoquinolin-6-yl)amino]-4-[[6-(2-oxopyrrolidin-1-yl)-2-pyridyl]amino]pyrimidine-5-carbonitrile], the half-maximal inhibitory concentration (IC50) against Wee1 lay within 500 to 1000 nM.
